Results as given in US6613760B1, “Indole derivatives and their use as MCP-1 receptor antagonists” (AstraZeneca AB, priority 1999, dated 2003).

Legend:
hMCP-1 receptor = target: T1, hMCP-1 receptor (Homo sapiens, UniProt P41597); assay: 125I MCP-1 binding to human peripheral blood mononuclear cells (PBMCs); conditions: 100 pM 125I-labeled MCP-1, 37° C. 60 minutes
T1 construct: endogenous in cells; host or cells: human PBMCs from fresh donor blood (whole cells)
T1 sequence (P41597 1-360 isoform P41597-2): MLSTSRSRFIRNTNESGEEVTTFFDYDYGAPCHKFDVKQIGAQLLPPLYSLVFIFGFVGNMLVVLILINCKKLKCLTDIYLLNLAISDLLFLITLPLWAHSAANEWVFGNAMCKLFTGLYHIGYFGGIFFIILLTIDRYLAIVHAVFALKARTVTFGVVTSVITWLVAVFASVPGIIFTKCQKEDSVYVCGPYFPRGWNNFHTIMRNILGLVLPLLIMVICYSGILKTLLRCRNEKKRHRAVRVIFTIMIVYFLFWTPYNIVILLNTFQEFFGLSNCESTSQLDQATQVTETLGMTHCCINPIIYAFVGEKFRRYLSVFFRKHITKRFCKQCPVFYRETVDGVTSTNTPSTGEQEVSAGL
Experimental: Fresh human blood (200 ml) was obtained from volunteer donors, collected into sodium citrate anticoagulant to give a final concentration of 0.38%. The blood was mixed with Sedimentation Buffer and incubated at 37° C. for 20 minutes. The supernatant was collected and centrifuged at 1700 rpm for 5 minutes (Sorvall RT6000D). The pellet obtained was resuspended in 20 ml RPMI/BSA (1 mg/ml) and 4×5 mls of cells were carefully layered over 4×5 mls of Lymphoprepa (Nycomed) in 15 ml centrifuge tubes. Tubes were spun at 1700 rpm for 30 minutes (Sorvall RT6000D) and the resultant layer of cells was removed and transferred to 50 ml Falcon tubes. The cells were washed twice in Lysis Buffer to remove any remaining red blood cells followed by 2 washes in RPMI/BSA. Cells were resuspended in 5 mls of Binding Buffer. Cell number was measured on a Coulter counter and additional binding buffer was added to give a final concentration of 1.25×10^7 PBMCs/ml. […]
Test compound potency was determined by assay in duplicate using six point dose-response curves and IC50 concentrations were determined.

THP-1 cells [1] = assay: hMCP-1 mediated chemotaxis of THP-1 cells; type: cell-based, human; conditions: biphasic response
Experimental: In vitro chemotaxis assays were performed using the human monocytic cell line THP-1. Cell migration through polycarbonate membranes was measured by enumerating those passing through either directly by Coulter counting or indirectly by use of a colourimetric viability assay measuring the cleavage of a tetrazolium salt by the mitochondrial respiratory chain (Scudiero D. A. et al. 1988, Cancer Res., 48, 4827-4833).
Chemoattractants were introduced into a 96-well microtitre plate which forms the lower well of a chemotaxis chamber fitted with a PVP-free 5 μm poresize polycarbonate adhesive framed filter membrane (NeuroProbe MB series, Cabin John, Md. 20818. USA) according to the manufacturer's instructions. […] The plate was incubated at 37° C. for 3 h and the absorbance of the soluble formazan product was read on a microtitre plate reader at 450 nm. The data was input into a spreadsheet, corrected for any random migration in the absence of chemoattractant and the average absorbance values, standard error of the mean, and significance tests were calculated. hMCP-1 induced concentration dependent cell migration with a characteristic biphasic response, maximal […]. […]

THP-1 cells [2] = assay: MCP-1 mediated calcium flux in THP-1 cells; type: cell-based, human; conditions: stimulation of THP-1 cells with hMCP-1; read-out: EC50 of rise in [Ca2+]i
Experimental: The human monocytic cell line THP-1 as grown in a synthetic cell culture medium RPMI 1640 supplemented with 10% foetal calf serum, 6 mM glutamine and Penicillin-Streptomycin (at 50 μg streptomycin/ml, Gibco BRL). THP-1 cells were washed in HBSS (lacking Ca^2+ and Mg^2+)+1 mg/ml BSA and resuspended in the same buffer at a density of 3×10^6 cells/ml. The cells were then loaded with […] FURA-2/AM for 30 min at 37° C., washed twice in HBSS, and resuspended at 1×10^6 cells/mil. THP-1 cell suspension (0.9 ml) was added to a 5 ml disposable cuvette containing a magnetic stirrer bar and 2.1 ml of prewarmed (37° C.) HBSS containing 1 mg/ml BSA, 1 mM MgCl, and 2 mM CaCl2. The cuvette was placed in a fluorescence spectrophotometer (Perkin Elmer, Norwalk. Conn.) and preincubated for 4 min at 37° C. with stirring. Fluorescence was recorded over 70 sec and cells were stimulated by addition of hMCP-1 to the cuvette after 10 sec. [Ca^2+]i was measured by excitation at 340 nm and 380 nm alternately and subsequent measurement of the intensity of the fluorescence emission at 510 nm.
where the Kd for FURA-2 Ca^2+ complex at 37° C. was taken to be 224 nm. […]

MCP-1 receptor B (CCR2B) = target: T2, MCP-1 receptor B (CCR2B) (Homo sapiens, UniProt P41597); assay: hMCP-1 receptor binding assay, 125I MCP-1 on CHO-CCR2B cell membranes
T2 construct: expressed in transfected cells; host or cells: CHO-K1 (clone 7, CHO-CCR2B), membrane fragments
T2 sequence (P41597 1-360 isoform P41597-2): T1 sequence (P41597 1-360 isoform P41597-2)
Text: The MCP-1 receptor B (CCR2B) cDNA was cloned by PCR from THP-1 cell RNA using suitable oligonucleotide primers based on the published MCP-1 receptor sequences (Charo et al., 1994, Proc. Natl. Acad. Sci. USA, 91, 2752). The resulting PCR products were cloned into vector PCR-II™ (InVitrogen, San Diego, Calif.). Error free CCR2B cDNA was subcloned as a Hind III-Not I fragment into the eukaryotic expression vector pCDNA3 (InVitrogen) to generate pCDNA3/CC-CKR2A and pCDNA3/CCR2B respectively.
Linearised pCDNA3/CCR2B DNA was transfected into CHO-K1 cells by calcium phosphate precipitation (Wigler et al., 1979, Cell, 16, 777). Transfected cells were selected by the addition of Geneticin Sulphate (G418, Gibco BRL) at 1 mg/ml, 24 hours after the cells had been transfected. Preparation of RNA and Northern blotting were carried out as described previously (Needham et al., 1995, Prot. Express. Purific., 6. 134). CHO-K1 clone 7 (CHO-CCR2B) was identified as the highest MCP-1 receptor B expressor.
CHO-CCR2B cells were grown in DMEM supplemented with 10% foetal calf serum, 2 mM glutamine. 1×Non-Essential Amino Acids. 1×Hypoxanthine and Thymidine Supplement and Penicillin-Streptomycin (at 50 μg streptomycin/ml, Gibco BRL). Membrane fragments were prepared using cell lysis/differential centrifugation methods as described previously (Siciliano et al., 1990, J. Biol. Chem., 265, 19658). […]

Molecule	IC50 (hMCP-1 receptor) [nM]	concentration of maximal cell migration (THP-1 cells [1])	EC50 (THP-1 cells [2]) [nM]	IC50 (MCP-1 receptor B (CCR2B); cold competition with 100 pM 125I-labeled MCP-1, CHO-CCR2B membrane fragments) [nM]	Kd (MCP-1 receptor B (CCR2B); equilibrium binding, CHO-CCR2B membrane fragments) [nM]
CS(=O)(=O)NCCNC(=O)c1cccc2c1cc(C(=O)O)n2Cc1ccc(Cl)c(Cl)c1 [Compound 9]	640	–	–	–	–
MCP-1: Human Monocyte Chemoattractant Protein-1, a C—C chemokine, ligand of the MCP-1 (CCR2) receptor	–	0.5-1.0 nm	~2	0.11	0.12
